ChEMBL document CHEMBL4507311, “Data for DCP probe A-1155463” (2021)

Tests used:
[1] = test system: Tyrosine-protein kinase ABL1 (Homo sapiens), P00519 [E255K]; conditions: Compound concentration 1000.0 nM
[2] = test system: Tyrosine-protein kinase ABL1 (Homo sapiens), P00519 [F317I]; conditions: Compound concentration 1000.0 nM
[3] = molecular target: Cytoplasmic tyrosine-protein kinase BMX (Homo sapiens) (UniProt P51813); conditions: Compound concentration 1000.0 nM
[4] = molecular target: Calcium/calmodulin-dependent protein kinase type 1D (Homo sapiens) (UniProt Q8IU85); conditions: Compound concentration 1000.0 nM
Calcium/calmodulin-dependent protein kinase type 1D (Homo sapiens), sequence (Q8IU85 whole entry, looked up): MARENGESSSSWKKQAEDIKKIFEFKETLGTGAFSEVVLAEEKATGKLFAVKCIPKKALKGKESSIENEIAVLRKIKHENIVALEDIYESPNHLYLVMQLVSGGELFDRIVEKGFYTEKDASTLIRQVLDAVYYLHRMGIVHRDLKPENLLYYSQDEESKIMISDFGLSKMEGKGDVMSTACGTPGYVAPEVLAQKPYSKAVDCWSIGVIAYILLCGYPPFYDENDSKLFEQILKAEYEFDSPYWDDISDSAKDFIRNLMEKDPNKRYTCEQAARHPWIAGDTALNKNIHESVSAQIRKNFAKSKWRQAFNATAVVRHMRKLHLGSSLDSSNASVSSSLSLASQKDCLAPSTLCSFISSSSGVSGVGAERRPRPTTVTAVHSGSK

[5] = molecular target: Serine/threonine-protein kinase Chk1 (Homo sapiens) (UniProt O14757); conditions: Compound concentration 1000.0 nM
[6] = molecular target: Casein kinase II subunit alpha' (Homo sapiens) (UniProt P19784); conditions: Compound concentration 1000.0 nM
[7] = test system: Epidermal growth factor receptor (Homo sapiens), P00533 [UNDEFINED MUTATION]; conditions: Compound concentration 1000.0 nM
Epidermal growth factor receptor (Homo sapiens), P00533 [UNDEFINED MUTATION], sequence (P00533 whole entry, looked up, change not shown): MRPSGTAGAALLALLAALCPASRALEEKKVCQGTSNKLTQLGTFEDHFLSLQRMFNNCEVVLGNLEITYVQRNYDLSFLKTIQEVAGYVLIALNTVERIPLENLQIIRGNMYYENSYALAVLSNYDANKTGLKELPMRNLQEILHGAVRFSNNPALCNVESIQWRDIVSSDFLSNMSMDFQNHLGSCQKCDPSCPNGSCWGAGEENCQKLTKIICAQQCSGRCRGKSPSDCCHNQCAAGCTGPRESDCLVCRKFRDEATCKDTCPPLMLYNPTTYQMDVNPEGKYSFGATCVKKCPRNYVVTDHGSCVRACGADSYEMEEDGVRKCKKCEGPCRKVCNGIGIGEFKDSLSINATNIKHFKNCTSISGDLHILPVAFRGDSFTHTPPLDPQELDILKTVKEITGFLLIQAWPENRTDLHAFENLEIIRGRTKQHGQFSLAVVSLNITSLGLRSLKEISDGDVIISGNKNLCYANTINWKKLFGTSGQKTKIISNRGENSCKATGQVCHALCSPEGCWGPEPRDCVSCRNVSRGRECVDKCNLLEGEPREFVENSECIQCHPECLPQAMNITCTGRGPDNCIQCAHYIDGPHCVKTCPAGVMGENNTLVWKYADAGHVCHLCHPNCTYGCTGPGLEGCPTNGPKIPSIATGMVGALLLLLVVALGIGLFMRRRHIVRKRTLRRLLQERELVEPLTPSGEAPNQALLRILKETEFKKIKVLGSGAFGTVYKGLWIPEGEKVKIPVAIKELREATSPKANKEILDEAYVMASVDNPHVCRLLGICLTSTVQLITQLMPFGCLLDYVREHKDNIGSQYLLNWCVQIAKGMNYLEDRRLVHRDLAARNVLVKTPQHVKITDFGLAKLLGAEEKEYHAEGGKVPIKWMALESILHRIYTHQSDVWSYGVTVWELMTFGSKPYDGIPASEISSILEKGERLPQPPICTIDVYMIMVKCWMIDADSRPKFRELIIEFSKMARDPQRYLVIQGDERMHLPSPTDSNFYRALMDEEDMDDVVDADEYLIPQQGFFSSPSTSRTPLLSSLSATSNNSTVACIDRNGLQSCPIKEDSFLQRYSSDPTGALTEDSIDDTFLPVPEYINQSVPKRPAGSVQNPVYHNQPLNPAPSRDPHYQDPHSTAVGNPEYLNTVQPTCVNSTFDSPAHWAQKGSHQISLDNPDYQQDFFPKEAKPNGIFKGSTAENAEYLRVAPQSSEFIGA

[8] = test system: Epidermal growth factor receptor (Homo sapiens), P00533 [UNDEFINED MUTATION]; conditions: Compound concentration 1000.0 nM; remark: listed apart in the source
[9] = molecular target: Ephrin type-A receptor 5 (Homo sapiens) (UniProt P54756); conditions: Compound concentration 1000.0 nM
[10] = molecular target: Ephrin type-B receptor 2 (Homo sapiens) (UniProt P29323); conditions: Compound concentration 1000.0 nM
[11] = molecular target: Receptor tyrosine-protein kinase erbB-3 (Homo sapiens) (UniProt P21860); conditions: Compound concentration 1000.0 nM
Receptor tyrosine-protein kinase erbB-3 (Homo sapiens), sequence (P21860 whole entry): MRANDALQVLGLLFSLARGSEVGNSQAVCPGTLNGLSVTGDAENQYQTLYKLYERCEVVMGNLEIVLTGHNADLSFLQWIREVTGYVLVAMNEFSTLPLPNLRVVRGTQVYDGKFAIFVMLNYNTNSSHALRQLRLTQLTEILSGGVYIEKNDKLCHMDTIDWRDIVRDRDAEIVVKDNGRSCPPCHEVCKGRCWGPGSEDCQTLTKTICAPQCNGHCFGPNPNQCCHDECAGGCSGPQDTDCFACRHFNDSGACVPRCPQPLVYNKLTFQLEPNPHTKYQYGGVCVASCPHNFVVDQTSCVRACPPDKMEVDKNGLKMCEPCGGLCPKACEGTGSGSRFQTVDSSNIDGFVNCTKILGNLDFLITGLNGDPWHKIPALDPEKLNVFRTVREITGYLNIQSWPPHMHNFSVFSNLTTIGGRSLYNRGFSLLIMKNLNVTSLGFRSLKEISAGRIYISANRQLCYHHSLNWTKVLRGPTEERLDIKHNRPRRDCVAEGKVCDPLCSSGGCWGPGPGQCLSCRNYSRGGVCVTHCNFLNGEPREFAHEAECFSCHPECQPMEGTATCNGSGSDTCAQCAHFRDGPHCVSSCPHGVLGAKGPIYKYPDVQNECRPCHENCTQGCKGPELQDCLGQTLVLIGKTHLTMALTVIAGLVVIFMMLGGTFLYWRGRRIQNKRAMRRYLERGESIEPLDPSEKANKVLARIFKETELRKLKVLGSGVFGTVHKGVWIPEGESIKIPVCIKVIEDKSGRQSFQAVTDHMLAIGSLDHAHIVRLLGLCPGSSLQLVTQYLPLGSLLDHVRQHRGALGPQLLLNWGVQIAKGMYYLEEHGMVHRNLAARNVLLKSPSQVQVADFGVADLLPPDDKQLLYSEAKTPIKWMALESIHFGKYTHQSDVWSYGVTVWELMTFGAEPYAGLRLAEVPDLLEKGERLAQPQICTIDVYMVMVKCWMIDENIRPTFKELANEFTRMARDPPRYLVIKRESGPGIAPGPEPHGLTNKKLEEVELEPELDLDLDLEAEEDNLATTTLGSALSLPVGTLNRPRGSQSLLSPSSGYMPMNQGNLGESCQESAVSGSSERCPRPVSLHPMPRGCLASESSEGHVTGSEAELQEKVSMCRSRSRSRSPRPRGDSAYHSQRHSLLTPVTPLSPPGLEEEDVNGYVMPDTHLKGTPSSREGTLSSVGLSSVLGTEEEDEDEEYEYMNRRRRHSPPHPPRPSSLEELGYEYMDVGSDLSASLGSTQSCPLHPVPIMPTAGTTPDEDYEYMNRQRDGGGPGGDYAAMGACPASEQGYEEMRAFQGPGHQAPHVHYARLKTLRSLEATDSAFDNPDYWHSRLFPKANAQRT

[12] = molecular target: Mitogen-activated protein kinase 4 (Homo sapiens) (UniProt P31152); conditions: Compound concentration 1000.0 nM
[13] = molecular target: Tyrosine-protein kinase Lck (Homo sapiens) (UniProt P06239); conditions: Compound concentration 1000.0 nM
[14] = molecular target: LIM domain kinase 1 (Homo sapiens) (UniProt P53667); conditions: Compound concentration 1000.0 nM
[15] = molecular target: Serine/threonine-protein kinase STK11 (Homo sapiens) (UniProt Q15831); conditions: Compound concentration 1000.0 nM
[16] = molecular target: Mitogen-activated protein kinase kinase kinase 15 (Homo sapiens) (UniProt Q6ZN16); conditions: Compound concentration 1000.0 nM
[17] = molecular target: Mitogen-activated protein kinase kinase kinase kinase 4 (Homo sapiens) (UniProt O95819); conditions: Compound concentration 1000.0 nM
Mitogen-activated protein kinase kinase kinase kinase 4 (Homo sapiens), sequence (O95819 2-1239 limits assumed): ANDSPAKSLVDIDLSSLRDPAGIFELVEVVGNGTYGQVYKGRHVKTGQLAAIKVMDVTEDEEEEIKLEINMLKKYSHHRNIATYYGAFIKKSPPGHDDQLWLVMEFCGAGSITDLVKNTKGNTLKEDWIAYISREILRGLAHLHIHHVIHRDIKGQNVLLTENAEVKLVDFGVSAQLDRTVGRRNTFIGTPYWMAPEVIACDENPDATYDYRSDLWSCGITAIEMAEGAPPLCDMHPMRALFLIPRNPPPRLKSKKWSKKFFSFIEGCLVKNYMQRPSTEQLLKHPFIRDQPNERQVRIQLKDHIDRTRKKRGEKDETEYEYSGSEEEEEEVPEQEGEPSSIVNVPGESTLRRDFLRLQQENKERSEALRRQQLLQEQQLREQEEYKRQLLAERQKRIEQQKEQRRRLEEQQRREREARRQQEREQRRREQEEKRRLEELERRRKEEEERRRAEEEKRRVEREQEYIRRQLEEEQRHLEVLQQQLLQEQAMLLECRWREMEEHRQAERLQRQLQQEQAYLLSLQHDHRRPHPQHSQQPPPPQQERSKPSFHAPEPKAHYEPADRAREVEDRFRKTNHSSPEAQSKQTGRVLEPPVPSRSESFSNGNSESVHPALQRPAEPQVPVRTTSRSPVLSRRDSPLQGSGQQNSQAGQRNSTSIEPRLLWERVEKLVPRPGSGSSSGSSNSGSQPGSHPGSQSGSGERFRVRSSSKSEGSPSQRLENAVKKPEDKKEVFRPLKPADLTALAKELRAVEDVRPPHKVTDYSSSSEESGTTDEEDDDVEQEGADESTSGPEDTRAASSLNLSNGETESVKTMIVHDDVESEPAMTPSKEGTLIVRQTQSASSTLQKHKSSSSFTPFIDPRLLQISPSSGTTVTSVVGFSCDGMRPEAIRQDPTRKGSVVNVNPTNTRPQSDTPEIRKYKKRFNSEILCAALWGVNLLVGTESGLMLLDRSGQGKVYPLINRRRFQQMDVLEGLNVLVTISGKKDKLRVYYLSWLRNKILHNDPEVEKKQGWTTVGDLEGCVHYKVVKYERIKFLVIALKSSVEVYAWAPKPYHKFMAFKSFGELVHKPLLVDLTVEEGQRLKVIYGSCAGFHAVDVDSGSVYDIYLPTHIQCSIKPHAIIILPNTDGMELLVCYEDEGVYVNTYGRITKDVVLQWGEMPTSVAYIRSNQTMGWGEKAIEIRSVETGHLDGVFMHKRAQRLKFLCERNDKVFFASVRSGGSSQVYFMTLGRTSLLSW

[18] = molecular target: Serine/threonine-protein kinase Nek10 (Homo sapiens) (UniProt Q6ZWH5); conditions: Compound concentration 1000.0 nM
[19] = molecular target: Mitogen-activated protein kinase kinase kinase 14 (Homo sapiens) (UniProt Q99558); conditions: Compound concentration 1000.0 nM
[20] = molecular target: Phosphatidylinositol 5-phosphate 4-kinase type-2 gamma (Homo sapiens) (UniProt Q8TBX8); conditions: Compound concentration 1000.0 nM
[21] = molecular target: Serine/threonine-protein kinase PLK2 (Homo sapiens) (UniProt Q9NYY3); conditions: Compound concentration 1000.0 nM
[22] = molecular target: Protein kinase C theta type (Homo sapiens) (UniProt Q04759); conditions: Compound concentration 1000.0 nM
Protein kinase C theta type (Homo sapiens), sequence (Q04759 whole entry, looked up): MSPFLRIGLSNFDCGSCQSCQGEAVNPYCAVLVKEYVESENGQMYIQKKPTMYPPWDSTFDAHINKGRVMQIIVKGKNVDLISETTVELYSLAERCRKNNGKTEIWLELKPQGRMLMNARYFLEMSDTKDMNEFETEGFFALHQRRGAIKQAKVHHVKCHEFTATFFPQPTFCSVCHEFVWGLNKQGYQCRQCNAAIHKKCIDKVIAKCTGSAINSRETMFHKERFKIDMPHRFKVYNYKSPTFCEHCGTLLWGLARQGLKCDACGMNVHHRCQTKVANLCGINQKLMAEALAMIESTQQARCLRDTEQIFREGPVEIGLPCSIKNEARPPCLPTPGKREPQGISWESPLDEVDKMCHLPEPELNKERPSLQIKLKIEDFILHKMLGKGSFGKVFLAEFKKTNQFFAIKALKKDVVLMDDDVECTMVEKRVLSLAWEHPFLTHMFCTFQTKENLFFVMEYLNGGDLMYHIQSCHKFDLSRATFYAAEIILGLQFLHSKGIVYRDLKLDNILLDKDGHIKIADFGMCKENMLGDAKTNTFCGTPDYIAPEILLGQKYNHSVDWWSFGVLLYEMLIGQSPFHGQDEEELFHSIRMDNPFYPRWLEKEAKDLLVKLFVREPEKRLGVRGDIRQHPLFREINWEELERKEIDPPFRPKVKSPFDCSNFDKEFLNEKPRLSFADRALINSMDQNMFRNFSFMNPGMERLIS

[23] = molecular target: cGMP-dependent protein kinase 2 (Homo sapiens) (UniProt Q13237); conditions: Compound concentration 1000.0 nM
[24] = test system: Proto-oncogene tyrosine-protein kinase receptor Ret (Homo sapiens), P07949 [V804M]; conditions: Compound concentration 1000.0 nM
[25] = molecular target: Rho-associated protein kinase 1 (Homo sapiens) (UniProt Q13464); conditions: Compound concentration 1000.0 nM
[26] = molecular target: Serine/threonine-protein kinase Sgk3 (Homo sapiens) (UniProt Q96BR1); conditions: Compound concentration 1000.0 nM
[27] = molecular target: NUAK family SNF1-like kinase 2 (Homo sapiens) (UniProt Q9H093); conditions: Compound concentration 1000.0 nM
[28] = molecular target: Proto-oncogene tyrosine-protein kinase Src (Homo sapiens) (UniProt P12931); conditions: Compound concentration 1000.0 nM
[29] = molecular target: Tyrosine-protein kinase Srms (Homo sapiens) (UniProt Q9H3Y6); conditions: Compound concentration 1000.0 nM
[30] = molecular target: Serine/threonine-protein kinase 35 (Homo sapiens) (UniProt Q8TDR2); conditions: Compound concentration 1000.0 nM
[31] = molecular target: Serine/threonine-protein kinase TAO2 (Homo sapiens) (UniProt Q9UL54); conditions: Compound concentration 1000.0 nM
[32] = molecular target: Phosphatidylinositol 3-kinase catalytic subunit type 3 (Homo sapiens) (UniProt Q8NEB9); conditions: Compound concentration 1000.0 nM
[33] = molecular target: Wee1-like protein kinase (Homo sapiens) (UniProt P30291); conditions: Compound concentration 1000.0 nM
[34] = molecular target: D(4) dopamine receptor (Homo sapiens) (UniProt P21917); conditions: Compound concentration 10.0 uM
[35] = molecular target: T1, Alpha-2B adrenergic receptor (Homo sapiens) (UniProt P18089); conditions: Compound concentration 10.0 uM
T1 sequence (whole entry): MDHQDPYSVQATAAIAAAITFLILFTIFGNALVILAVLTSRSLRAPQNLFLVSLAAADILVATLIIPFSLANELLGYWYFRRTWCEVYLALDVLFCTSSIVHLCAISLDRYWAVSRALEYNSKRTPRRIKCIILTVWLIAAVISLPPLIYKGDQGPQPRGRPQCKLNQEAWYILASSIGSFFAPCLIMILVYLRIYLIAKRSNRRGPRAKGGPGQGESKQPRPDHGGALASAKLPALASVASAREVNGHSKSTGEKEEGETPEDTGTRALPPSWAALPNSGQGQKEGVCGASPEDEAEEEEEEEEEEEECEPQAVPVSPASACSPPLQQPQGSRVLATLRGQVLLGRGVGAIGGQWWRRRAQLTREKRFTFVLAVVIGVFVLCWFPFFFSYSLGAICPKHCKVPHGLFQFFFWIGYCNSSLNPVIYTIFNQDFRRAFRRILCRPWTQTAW

CN(C)CC#Cc1ccc(OCCCc2sc(N3CCc4cccc(C(=O)Nc5nc6ccccc6s5)c4C3)nc2C(=O)O)c(F)c1 [A-1155463]
inactive: residual activity [1] 85% | residual activity [2] 100% | residual activity [3] 82% | residual activity [4] 90% | residual activity [5] 89% | residual activity [6] 100% | residual activity [7] 100% | residual activity [8] 100% | residual activity [9] 98% | residual activity [10] 100% | residual activity [11] 100% | residual activity [12] 89% | residual activity [13] 100% | residual activity [14] 97% | residual activity [15] 100% | residual activity [16] 99% | residual activity [17] 96% | residual activity [18] 87% | residual activity [19] 100% | residual activity [20] 100% | residual activity [21] 94% | residual activity [22] 92% | residual activity [23] 86% | residual activity [24] 98% | residual activity [25] 100% | residual activity [26] 100% | residual activity [27] 82% | residual activity [28] 100% | residual activity [29] 100% | residual activity [30] 86% | residual activity [31] 100% | residual activity [32] 100% | residual activity [33] 100% | inhibition [34] -3.48% | inhibition [35] 17.2%
